Data taken from paper PMC9318133 (International Journal of Molecular Sciences, 2022).

Tested on: fEPSP of CA1 area of mouse hippocampal slice
Assay: Electrophysiological recording of fEPSP in hippocampal slices
Type: cell-based
Conditions: AM-251 2 µM; JWH-175 and JWH-018 both at 1 µM; data not shown
Description: Procedures for tissue preparation are the same as those described by Ossato et al., 2016 [45]. In brief, after mouse decapitation, the head was immediately chilled in refrigerated artificial cerebrospinal fluid (aCSF, 0 °C) of the following composition (in mM): NaCl, 126; KCl, 2; KH2PO4, 1.25; NaHCO3, 26; MgSO4, 2.0; CaCl2, 2.5; d-glucose, 10. After 1 min, the brain was extracted to isolate the hippocampus and then placed in ice-cold artificial cerebrospinal fluid (aCSF). All solutions were saturated with 95% O2/5% CO2. Transverse hippocampal slices (425 μm thick) were cut with a tissue chopper and then placed for almost 90 min in a Haas-style incubation chamber for recovery before recording.
A single slice was transferred into a submerged-type recording chamber (3 mL total volume) and continuously superfused (3.0 mL/min) with warmed (32–33 °C) aCSF. WINLTP 2.10 computer software was used for stimulus triggering, PC recording, and analysis. Synaptic responses of CA1 pyramidal neurons were elicited by electrical stimulation of the Schaffer collateral/commissural pathway. Single stimulation pulses (80 µs duration; 0.05 Hz) were delivered by mean of a concentric bipolar electrode (o.d. 125 μm, FHC, USA) connected to a Grass S11 stimulator driving a PSIU6 constant current stimulus isolation unit. To record the fEPSPs, borosilicate glass electrodes fabricated using a microelectrode puller (P97, Sutter Instruments) and filled with aCSF (1.5 ± 0.5 MΩ), inserted in the distal third of the stratum radiatum and 200–300 µm away from stimulating electrodes, were used. The maximal fEPSPs response was reached by adjusting the recording electrode depth. Recorded potentials were amplified (Axoprobe 1A DC-coupled—Cyberamp 320, Molecular Devices, Sunnyvale, CA, USA) and filtered (5.0 kHz) prior to A/D conversion. Upon 10 min of stable synaptic response, a stimulus–response curve (SRC) was generated as previously described to extrapolate a stimulation intensity evoking 70% of maximal fEPSP, to be used throughout the experiment. […] To investigate whether the vehicle had any effect on synaptic activity, the superfusion inlet was switched to a reservoir containing aCSF plus the amount of vehicle present for the corresponding drug concentration (sham application), before switching to the solution also including the drug, for comparison. All reservoirs and tubing were on glass or Teflon to avoid the capturing of cannabinoids by plastic or silicon parts.
We analyzed data from in vitro recordings as previously described. […] Effect of treatment was considered steady state when stable +/− 5% for 10 min.

## Cc1c(C(=O)NN2CCCCC2)nn(-c2ccc(Cl)cc2Cl)c1-c1ccc(I)cc1 [AM-251, 1-(2,4-dichlorophenyl)-5-(4-iodophenyl)-4-methyl-N-1-piperidinyl-1H-pyrazole-3-carboxamide]
  effect of AM-251 perfusion on the inhibitory effect of JWH-175 and JWH-018 on fEPSP: completely prevented
